Data reported in US20230310416A1, “SUSPENSION OF TRIAZOLE ANTIFUNGAL DRUG FOR ATOMIZER” (SHANGHAI FRONTIER HEALTH PHARMACEUTICAL TECHNOLOGY CO., LTD, priority 2020, published 2023).

System: bleomycin-induced idiopathic pulmonary fibrosis in mice
Experiment: Mouse model of pulmonary fibrosis induced by bleomycin, inhalation versus oral administration
Type: in vivo, ICR mice
Settings: once a day for 22 days
Experimental: In order to investigate the efficacy of itraconazole suspension of the present invention by inhalation administration, a mouse model of pulmonary fibrosis induced by bleomycin 2 mg/kg/mouse was established and compared with that by oral administration.
Test animals: ICR mice: SPF grade, body weight 22-24 g, male.
Test drugs: itraconazole suspension prepared in Example 3
Model establishment: 2 mg/kg of bleomycin hydrochloride for injection was sprayed into the respiratory tract of each mouse to induce pulmonary fibrosis, 4 weeks later, a mouse pulmonary fibrosis model was established.
Animal grouping: Mice were randomly divided into 4 groups, namely a blank control group, a model group, an itraconazole inhalation group, in which 2.5 mg/kg was inhaled for 3 minutes (2.5 mg/kg Inhalation group) and an itraconazole oral group, in which 15 mg/kg was orally administrated(15 mg/kg Oral group). The drugs were administered once a day for 22 consecutive days from the fifth day after modeling.
Detecting indexes: the mice were sacrificed after administration, the trachea was separated, the left lung was ligated, the bronchoalveolar lavage (BAL) was performed, the bronchoalveolar lavage fluid (BALF) was taken for white cell count and classification count, after the lung tissue was fixed with formalin, paraffin embedding, sectioning, H & E staining and Masson’s staining were carried out. The contents of transforming growth factor (TGF- β 1), mouse type I collagen (Col I) and hydroxyproline in lung tissue in supernatant of the BALF were detected by a kit.

CCC(C)n1ncn(-c2ccc(N3CCN(c4ccc(OCC5COC(Cn6cncn6)(c6ccc(Cl)cc6Cl)O5)cc4)CC3)cc2)c1=O (stereo not drawn) [itraconazole] was tested. Which “Collagen deposition in lung tissue” value (2.5 mg/kg inhalation) did it give?
Its value is 62759.9±17865.8.

And the “Content of Col I in BALF” value (2.5 mg/kg inhalation)?
The value was 1.64 ± 0.64 ng/mL.

What about the “Content of TGF-β1 in BALF” value (2.5 mg/kg inhalation) of the same compound?
The value was 32.13 ± 25.97 pg/mL.

And the “Content of hydroxyproline in lung tissue” value (2.5 mg/kg inhalation)?
Its value is 526.7 ±66.0 µg/g tissue.

And the “Number of neutrophils in BALF” value (2.5 mg/kg inhalation)?
The value was 12.08±5.85 1 × 10^4 cell/ml.

What about the “Total number of white blood cells in BALF” value (2.5 mg/kg inhalation) of the same compound?
The value was 26.13 ±5.93 1 × 10^4 cell/ml.

And the “Collagen deposition in lung tissue” value (15 mg/kg oral)?
Its value is 166628.8±35819.8.

What about the “Content of Col I in BALF” value (15 mg/kg oral) of the same compound?
The value was 1.91 ± 0.86 ng/mL.

What about the “Content of TGF-β1 in BALF” value (15 mg/kg oral) of the same compound?
The value was 24.79 ± 12.72 pg/mL.

What about the “Content of hydroxyproline in lung tissue” value (15 mg/kg oral) of the same compound?
Its value is 583.8 ±96.6 µg/g tissue.

And the “Number of neutrophils in BALF” value (15 mg/kg oral)?
Its value is 13.71 ±7.58 1 × 10^4 cell/ml.

And the “Total number of white blood cells in BALF” value (15 mg/kg oral)?
Its value is 29.13±10.99 1 × 10^4 cell/ml.
